Experimental findings from PMC7539012, “Hyperphosphorylated tau aggregation and cytotoxicity modulators screen identified prescription drugs linked to Alzheimer's disease and cognitive functions” (Scientific Reports, 2020) are described below.

Structures can show the parent of a compound that is named as a salt. Where two headings read alike, the source gives them in different places.

This assay relates to T1, 1N4R p-tau.
T1 construct: made in house; host or cells: E. coli (PIMAX system)
As to the kind of experiment: p-tau aggregation modulator screen of 1280-compound library (ThS fluorescence net change over 16 h).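 As to ThS net change: 30 µM compound with 6 µM p-tau over 16 h.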 Type of assay: biochemical. Also on record: key to PTAI>2SD: *: PTAI>2SD; key to PTAI>3SD: *: PTAI>3SD. To be noted: for PTAI>3SD: ThS net change more than 3 SD from mean.

Where [1] appears, read: 1280-compound library screen, ThS fluorescence net change over 16 h.
Where [2] appears, read: p-tau aggregation modulator screen of the compound library, ThS fluorescence net change.
The mark [3] stands for this setting: 1280-compound library screen, […].
[4] abbreviates: p-tau aggregation modulator screen of 1280-compound library, ThS fluorescence net change.
Setting [5] is: library screen, ThS fluorescence net change over 16 h with p-tau.
Where [6] appears, read: p-tau aggregation modulator screen of 1280-compound library, […].
The mark [7] stands for this setting: flag: p-tau aggregation inhibitor.

As to `NC(=O)NC1NC(=O)NC1=O` (stereo not shown) [Allantoin], the ThS net change under setting [1] is given as 390.
On the same count and under the same terms, with `Cn1nnc2c(C(N)=O)ncn2c1=O` [Temozolomide] the figure was 380.
`COC(=O)Nc1nc2ccc([S+]([O-])c3ccccc3)cc2[nH]1` (stereo not shown) [Oxfendazol] yielded a ThS net change under setting [2] of 433.
Turning to `CCCCOC(=O)c1ccc(O)cc1` [Butylparaben], under setting [3], the ThS net change turned out to be 396.
With `C[C@@H]1C[C@H]2[C@@H]3CCC4=CC(=O)C=C[C@]4(C)[C@@]3(Cl)[C@@H](O)C[C@]2(C)[C@@]1(OC(=O)c1ccco1)C(=O)CCl` [Mometasone furoate], under setting [2], the ThS net change was determined as 484.
Consider `NNCCc1ccccc1` [Phenelzine sulfate], for which the ThS net change under setting [4] is reported as 369.
In turn, `CN(C)CCCN1c2ccccc2Sc2ccc(Cl)cc21` [Chlorpromazine hydrochloride] showed a ThS net change under setting [5] of 317.
Regarding `CC[P](CC)(CC)=[Au][S][C@@H]1O[C@H](COC(C)=O)[C@@H](OC(C)=O)[C@H](OC(C)=O)[C@H]1OC(C)=O` [Auranofin], the ThS net change under setting [4] came to 365.
Molecule `CO[C@@]1(NC(=O)C2SC(=C(C(N)=O)C(=O)O)S2)C(=O)N2C(C(=O)O)=C(CSc3nnnn3C)CS[C@@H]21` (stereo partly shown) [Cefotetan] returned a ThS net change under setting [1] of 392.
With `Cl.O[C@@H]1CCCC[C@H]1N1CCC(c2ccccc2)CC1` [L(-)-vesamicol hydrochloride], the ThS net change under setting [6] was 360.
With `CCOC(=O)C1=C[C@]2(CC)CCCN3CCc4c(n1c1ccccc41)[C@@H]32` [Vinpocetine], under setting [4], the ThS net change was determined as 370.
As for `CC(C)(C)NC[C@H](O)COc1cccc2c1CCCC2=O.Cl` [(-) -Levobunolol hydrochloride], under setting [1], the ThS net change is reported as 397.
Molecule `COc1cc([S+](C)[O-])ccc1-c1nc2ncccc2[nH]1` (stereo not shown) [Sulmazole] had a ThS net change under setting [1] of 406.
Under setting [2], `COc1ccccc1Oc1c(NS(=O)(=O)c2ccc(C(C)(C)C)cc2)nc(-c2ncccn2)nc1OCCO` [Bosentan] yielded a ThS net change of 453.
On to `Cn1cc[nH]c1=S` [Methimazole], for which the ThS net change under setting [1] came to 393.
For `CCOC(=O)C1=C(COCCN)NC(C)=C(C(=O)OC)C1c1ccccc1Cl` (stereo not shown) [Amlodipine], the ThS net change under setting [4] is given as 351.
In turn, `COc1c(N2C[C@@H]3CCCN[C@@H]3C2)c(F)cc2c(=O)c(C(=O)O)cn(C3CC3)c12` [Moxifloxacin] displayed a ThS net change under setting [1] of 413.
Regarding `Cc1cc(/C=C/c2ccc3cc(N(C)C)ccc3[n+]2C)c(C)n1-c1ccccc1` [Pyrvinium pamoate], the “PTAI>3SD” value under setting [7] is listed as “*”. Under setting [5], this molecule had a ThS net change of -379.
`Nc1nnc(-c2cccc(Cl)c2Cl)c(N)n1` [Lamotrigine] gave a ThS net change under setting [1] of 389.
As to `CC(C)(C)NCC(O)c1cc(O)cc(O)c1.CC(C)(C)NCC(O)c1cc(O)cc(O)c1.O=S(=O)(O)O` (stereo not shown) [Terbutaline hemisulfate], the ThS net change under setting [4] is 339.
As to `CCOc1ccc2ccccc2c1C(=O)N[C@@H]1C(=O)N2[C@@H]1SC(C)(C)[C@@H]2C(=O)O` [Nafcillin sodium salt monohydrate], under setting [5], the ThS net change stood at 317.
Turning to `CN(C)CCCN1c2ccccc2Sc2ccc(C(F)(F)F)cc21` [Triflupromazine hydrochloride], the ThS net change stood at 280.
Regarding `CC(=O)[C@H]1CC[C@H]2[C@@H]3CC[C@H]4C[C@H](O)CC[C@]4(C)[C@H]3C(=O)C[C@]12C` [Alfaxalone], the ThS net change came out at 420.
Take `CC(C)(C)NCC(O)COc1cccc2c1CC(O)C(O)C2` (stereo not shown) [Nadolol]: the ThS net change under setting [1] is 411.
Molecule `Cc1cn([C@H]2C[C@H](N=[N+]=[N-])[C@@H](CO)O2)c(=O)[nH]c1=O` [Zidovudine, AZT] came in with a ThS net change under setting [2] of 448.
As for `C=C1c2c(Cl)ccc(O)c2C(=O)C2=C(O)[C@]3(O)C(=O)C(C(N)=O)=C(O)[C@@H](N(C)C)[C@@H]3[C@@H](O)[C@H]12.O=C(O)c1cc(S(=O)(=O)O)ccc1O` [Meclocycline sulfosalicylate], the “PTAI>2SD” value (flag: p-tau aggregation inhibitor, ThS net change more than 2 SD from mean) is on record as “*”. This molecule also yielded a ThS net change under setting [5] of 171.
For the molecule `CCN1CCCC1CNC(=O)c1cc(S(N)(=O)=O)ccc1OC` (stereo not shown) [Sulpiride], under setting [4], the ThS net change stood at 373.
Take `C[n+]1ccccc1/C=N/O` [Pralidoxime chloride]: under setting [3], the ThS net change was 397.
For the molecule `O=C(O)c1cc(-c2ccc(F)cc2F)ccc1O` [Diflunisal], the ThS net change under setting [5] is on record as 304.
On to `Cc1ccc(O)c([C@H](CCN(C(C)C)C(C)C)c2ccccc2)c1` [Tolterodine tartrate], for which the ThS net change is recorded as 422.
Molecule `COC(=O)[C@H]1[C@H]2C[C@@H]3c4[nH]c5cc(OC)ccc5c4CCN3C[C@H]2C[C@@H](OC(=O)c2cc(OC)c(OC)c(OC)c2)[C@@H]1OC` [Reserpine] came in with a ThS net change under setting [4] of 355.
Molecule `O=c1c2ccccc2[se]n1-c1ccccc1` [Ebselen] showed a ThS net change under setting [4] of 348.
For `CC[C@H](c1ccc(O)cc1)[C@@H](CC)c1ccc(O)cc1` [Hexestrol], the ThS net change under setting [2] is reported as 435.
Under setting [1], `NC(=O)CN1CCCC1=O` [Piracetam] returned a ThS net change of 406.
As to `CC(=O)Oc1ccccc1C(=O)O` [Acetylsalicylic acid], the ThS net change under setting [2] worked out at 492.
On to `c1ccc2c(c1)Nc1ccccc1S2` [Phenothiazine], for which the ThS net change came out at 421.
`C[C@]12CC[C@@H]3c4ccc(O)cc4CC[C@H]3[C@@H]1CCC2=O` [Estrone]: the ThS net change under setting [4] is on record as 344.
Molecule `CC(=O)Nc1ccc(OCC(O)CNC(C)C)cc1` (stereo not shown) [Practolol] gave a ThS net change under setting [1] of 383.
For `CN1CCCC(n2nc(Cc3ccc(Cl)cc3)c3ccccc3c2=O)CC1` (stereo not shown) [Azelastine HCl], under setting [7], the “PTAI>3SD” value is “*”. Also, the ThS net change under setting [5] came to 0.
Under setting [6], `CN1C[C@H](C(=O)N[C@]2(C)O[C@@]3(O)[C@@H]4CCCN4C(=O)[C@H](Cc4ccccc4)N3C2=O)CC2c3cccc4[nH]cc(c34)C[C@H]21.CN1C[C@H](C(=O)N[C@]2(C)O[C@@]3(O)[C@@H]4CCCN4C(=O)[C@H](Cc4ccccc4)N3C2=O)C[C@@H]2c3cccc4[nH]cc(c34)C[C@H]21.O=C(O)C(O)C(O)C(=O)O` (stereo partly shown) [Dihydroergotamine tartrate] yielded a ThS net change of 342.
`CC1(C)S[C@@H]2[C@H](NC(=O)Cc3ccccc3)C(=O)N2[C@H]1C(=O)O.CC1(C)S[C@@H]2[C@H](NC(=O)Cc3ccccc3)C(=O)N2[C@H]1C(=O)O.c1ccc(CNCCNCc2ccccc2)cc1` [Benzathine benzylpenicillin] yielded a ThS net change under setting [2] of 455.
Molecule `NC(=O)N/N=C/c1ccc([N+](=O)[O-])o1` [Nitrofural] displayed a ThS net change under setting [4] of 365.
`CN(C)CCCC1(c2ccc(F)cc2)OCc2cc(C#N)ccc21` (stereo not shown) [Citalopram Hydrobromide] gave a ThS net change under setting [4] of 351.
Still for that read-out and setting: to `Cc1ccccc1N1C(=O)c2cc(S(N)(=O)=O)c(Cl)cc2NC1C` (stereo not shown) [Metolazone] belongs 364.
`CN(C)C(=N)N=C(N)N` [Metformin hydrochloride] yielded a ThS net change under setting [2] of 415.
On to `CCN(C)C(=O)Oc1cccc([C@H](C)N(C)C)c1` [Rivastigmine], for which the ThS net change came out at 462.
Take `OCC(O)CN1CCN(c2ccccc2)CC1` (racemic) [Dropropizine (R,S)]: the ThS net change under setting [2] is 418.
In turn, `CC[C@H](C)C(=O)O[C@H]1C[C@@H](C)C=C2C=C[C@H](C)[C@H](CC[C@@H]3C[C@@H](O)CC(=O)O3)[C@H]21` [Lovastatin] returned a ThS net change under setting [1] of 408.
With `Cc1c(-c2ccccc2)oc2c(C(=O)OCCN3CCCCC3)cccc2c1=O` [Flavoxate hydrochloride], the ThS net change under setting [4] stood at 359.
On to `CCc1c(C)[nH]c2c1C(=O)C(CN1CCOCC1)CC2` (stereo not shown) [Molindone hydrochloride], for which the ThS net change under setting [2] amounted to 458.
In turn, `CC1(C)O[C@@H]2C[C@H]3[C@@H]4C[C@H](F)C5=CC(=O)C=C[C@]5(C)[C@H]4[C@@H](O)C[C@]3(C)[C@]2(C(=O)CO)O1` [Flunisolide] registered a ThS net change under setting [1] of 378.
`C[C@H]1C[C@H]2[C@@H]3CCC4=CC(=O)C=C[C@]4(C)[C@@]3(F)[C@@H](O)C[C@]2(C)[C@@]1(O)C(=O)CO` [Betamethasone] yielded a ThS net change under setting [1] of 395.
Molecule `CCCCC1C(=O)N(c2ccccc2)N(c2ccccc2)C1=O` [Phenylbutazone] registered a ThS net change under setting [2] of 413.
`OCCN1CCN(CCCN2c3ccccc3C=Cc3ccccc32)CC1` [Opipramol dihydrochloride] came in with a ThS net change under setting [4] of 343.
In turn, `CN(C)CCCSC(=N)N.Cl.Cl` [Dimaprit dihydrochloride] came in with a ThS net change under setting [2] of 436.
`C/C=C(/C(=C/C)c1ccc(O)cc1)c1ccc(O)cc1` [Dienestrol] showed a ThS net change under setting [1] of 410.
With `Cc1cc(N)c2ccccc2[n+]1CCCCCCCCCC[n+]1c(C)cc(N)c2ccccc21` [Dequalinium dichloride], the ThS net change under setting [5] is on record as 297.
Still for that read-out and setting: to `CCCCOc1cc(C(=O)OCCN(CC)CC)ccc1N` [Benoxinate hydrochloride] belongs 312.
For `NC[C@H]1O[C@H](OC2[C@@H](N)C[C@@H](N)[C@H](O)[C@H]2O[C@@H]2O[C@H](CO)[C@@H](O)[C@H]2O)[C@H](N)[C@@H](O)[C@@H]1O.O=S(=O)(O)O` (stereo partly shown) [Ribostamycin sulfate salt], the ThS net change under setting [1] is given as 379.
In turn, `O=C(CCCN1CCN(c2ccccn2)CC1)c1ccc(F)cc1` [Azaperone] gave a ThS net change under setting [2] of 419.
`O=C(CCCN1CCC(O)(c2ccc(Br)cc2)CC1)c1ccc(F)cc1` [Bromperidol] displayed a ThS net change under setting [4] of 337.
For `COc1ccc(CCN(C)CCCC(C#N)(c2ccc(OC)c(OC)c2)C(C)C)cc1OC` (stereo not shown) [Verapamil hydrochloride], the ThS net change is on record as 325.
For the molecule `COC(=O)C1=C(C)NC(C)=C(C(=O)O[C@@H]2CCCN(Cc3ccccc3)C2)[C@@H]1c1cccc([N+](=O)[O-])c1.Cl` (racemic) [Benidipine hydrochloride], the ThS net change under setting [5] turned out to be 259.
Under setting [3], `C(#CCN1CCCC1)CN1CCCC1.Cl.Cl` [Tremorine dihydrochloride] came in with a ThS net change of 391.
